Source: PubChem BioAssay (NCI)
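96-well plates; 48 h exposure; 5 concentrations. Endpoints by linear interpolation between flanking doses. Not reached: highest tested concentration assigned. Here, GI50 denotes the concentration required for 50% inhibition of growth. TGI denotes the concentration required for complete inhibition of growth.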

Legend:
Assay in all cases: inhibition of tumour cell growth, NCI panel, 48 h
[1] = system: CAKI-1 renal
[2] = system: CCRF-CEM leukemia
[3] = system: HCT-116 colon
[4] = system: HOP-62 NSCLC
[5] = system: HT29 colon
[6] = system: KM12 colon
[7] = system: RPMI-8226 leukemia
[8] = system: RXF 393 renal
[9] = system: SK-MEL-2 melanoma
[10] = system: SN12C renal

Row | Compound | GI50 [1] [µM] | TGI [1] [µM] | GI50 [2] [µM] | TGI [2] [µM] | GI50 [3] [µM] | TGI [3] [µM] | GI50 [4] [µM] | TGI [4] [µM] | GI50 [5] [µM] | TGI [5] [µM] | GI50 [6] [µM] | TGI [6] [µM] | GI50 [7] [µM] | TGI [7] [µM] | GI50 [8] [µM] | TGI [8] [µM] | GI50 [9] [µM] | TGI [9] [µM] | GI50 [10] [µM] | TGI [10] [µM]
1 | COc1cc(-c2cn(-c3ccc(Cl)c(Cl)c3)c(=O)n2C(C)=O)cc(OC)c1OC | 11.5 | 33.5 | 16.1 | 59.9 | 13.7 | 27.9 | 7.48 | 21.1 | 6.32 | 21.8 | 12.3 | 28.6 | 10.5 | 32.3 | 3.34 | 14.9 | 10.6 | 25.3 | 12.3 | 31.1
2 | CCOC(=O)/C=C/C1=C(c2cccs2)c2ccccc2CC1 | 43.1 | > 100 | 27.3 | 73.1 | 25.4 | 79.5 | 38 | > 100 | 24.4 | 65.3 | 25.6 | 90 | 21.2 | 49.4 | 19.5 | 41.3 | 35.9 | > 100 | 28.3 | > 100
3 | COc1ccc(Cn2cc3c(c2)-c2oncc2CC3)cc1 | 6.24 | > 100 | 2.87 | > 88.6 | 3 | > 25.7 | 9.64 | > 100 | 3.69 | > 64.8 | 2.62 | 20.7 | 2.97 | > 63.8 | 5.25 | 28.1 | 4.88 | 22.3 | 10.1 | > 100
4 | Fc1cc2[nH]ncc2c2c3c(c(-c4cn[nH]c4C(F)(F)F)nc12)C1CCC3C1 (stereo not given) | 0.602 | 3.51 | 1.23 | > 50 | 0.642 | 5.55 | 0.97 | 3.75 | 1.47 | 10.5 | 0.656 | 6.3 | 0.804 | 3.54 | 0.345 | 1.12 | 1.57 | 4.2 | 0.96 | 5.18
5 | CN1CC[C@]2(C)c3ccc(O)cc3CC3CCCC1C32C (stereo not given in full) | – | > 100 | – | > 100 | – | > 100 | – | > 100 | – | > 100 | – | > 100 | – | > 100 | – | > 100 | – | > 100 | – | > 100
6 | Cc1cc2c(cc1C)N(C(=O)CCl)CCN2C(=O)CCl | 1.78 | 4.08 | 0.282 | 0.856 | 0.186 | 0.409 | 1.71 | 3.37 | 0.301 | 0.943 | 1.72 | 3.31 | 0.571 | 2.7 | 0.237 | 0.668 | 1.81 | 4.22 | 0.754 | 2.67
